Tests used:
E. faecium = assay: DiBAC4 membrane depolarization on E. faecium; format: cell-based, Enterococcus faecium; conditions: deoxycholate as positive control
A. baumannii = assay: DiBAC4 membrane depolarization on A. baumannii; format: cell-based, Acinetobacter baumannii; conditions: polymyxin as positive control
bacterial membrane = conditions: bacterium not stated; ref [6b],[13],[15]; cited from earlier work

Compound: C[C@H](CCC(=O)O)[C@H]1CC[C@H]2[C@@H]3CC[C@@H]4C[C@H](O)CC[C@]4(C)[C@H]3C[C@H](O)[C@]12C [sodium deoxycholate]
- Membrane depolarization (DiBAC4 fluorescence change) (E. faecium): rapidly enhanced DiBAC4 fluorescence

Compound: polymyxin
- Membrane depolarization (DiBAC4 fluorescence change) (A. baumannii): rapidly enhanced DiBAC4 fluorescence

Compound: tridecaptin
- Membrane depolarization in DiBAC4 assay (bacterial membrane): does not depolarize the membrane
